Source: patent US12129266B2, “Substituted pyrazolo[1,5-a]pyridine compound, composition containing the same and use thereof” (Shenzhen TargetRx, Inc., priority 2018, dated 2024)

Tests used:
[1] = Metabolic stability evaluation, liver microsome assay (HLM); format: in vitro ADME; settings: pH 7.4, human liver microsomes 0.5 mg/mL, compound 1 μM, NADPH, 37° C.; for half-life at 1 μM: read-out: HLM t1/2
Method: (§1) Microsome assay: human liver microsomes (HLM): 0.5 mg/mL, Xenotech; rat liver microsomes (RLM): 0.5 mg/mL, Xenotech; mice liver microsomes (MLM): 0.5 mg/mL, Xenotech; coenzyme (NADPH/NADH): 1 mM, Sigma Life Science; magnesium chloride: 5 mM, 100 mM phosphate buffer (pH is 7.4).
(§2) Preparation of stock solution: a certain amount of powder of the example compound and the reference compound were accurately weighed, and dissolved to 5 mM with DMSO, respectively.
(§3) Preparation of phosphate buffer (100 mM, pH7.4): Pre-formulated 150 mL 0.5 M potassium dihydrogen phosphate and 700 mL 0.5 M dipotassium hydrogen phosphate solution were mixed, then the pH of the mixture was adjusted to 7.4 with 0.5 M dipotassium hydrogen phosphate solution. Before use, 5-fold dilution was made with ultra-pure water, and magnesium chloride was added to afford phosphate buffer (100 mM), which containing 100 mM potassium phosphate, 3.3 mM magnesium chloride, pH is 7.4.
(§4) NADPH regeneration system solution (containing 6.5 mM NADP, 16.5 mM G-6-P, 3 U/mL G-6-P D, 3.3 mM magnesium chloride) was prepared and placed on wet ice before use.
(§5) Preparation of stop solution: Acetonitrile solution containing 50 ng/mL propranolol hydrochloride and 200 ng/mL tolbutamide (internal standard). 25057.5 μL phosphate buffer (pH 7.4) was taken into a 50 mL centrifuge tube, and 812.5 μL human liver microsome was added, mixed well to afford liver microsome diluent with a protein concentration of 0.625 mg/mL. 25057.5 μL phosphate buffer (pH 7.4) was taken into a 50 mL centrifuge tube, and 812.5 μL SD rat liver microsome was added, respectively, mixed well to afford liver microsome diluent with a protein concentration of 0.625 mg/mL. 25057.5 μL phosphate buffer (pH 7.4) was taken into a 50 mL centrifuge tube, and 812.5 μL mice liver microsome was added, respectively, mixed well to afford liver microsome diluent with a protein concentration of 0.625 mg/mL.
(§6) Incubation of the sample: The stock solutions of the corresponding compounds were diluted to 0.25 mM with an aqueous solution containing 70% acetonitrile as working solutions for use. 398 μL of human liver microsome or rat liver microsome or mice liver microsome diluent was taken and added to a 96-well incubation plate (N=2), respectively, and 2 μL of 0.25 mM working solution was then added respectively, and mixed well.
(§7) Determination of metabolic stability: 300 μL of pre-chilled stop solution was added to each well of a 96-well deep well plate and the plate was placed on ice as a stop plate. The 96-well incubation plate and NADPH regeneration system were placed in a 37° C. water bath box, shook at 100 rpm, and pre-incubated for 5 min. 80 μL of incubation solution was taken from each well of the incubation plate and added to the stop plate, mixed well, and 20 μL of NADPH regeneration system solution was supplemented, the resulted solution was considered as sample at 0 min. Then 80 μL of NADPH regeneration system solution was added to each well of the incubation plate to start the reaction and started timing. The reaction concentration of the corresponding compound is 1 μM, and the protein concentration is 0.5 mg/mL. 100 μL reaction solution was taken at 10, 30, 90 min of reaction, respectively, and added into stop plate, the reaction was stopped with 3 min vortex. The stop plate was centrifuged at 5000×g, 4° C. for 10 min. 100 μL of supernatant was taken to a 96-well plate where 100 μL of distilled water was added in advance, mixed well, sample analysis was subjected by LC-MS/MS.
(§8) Data analysis: LC-MS/MS system was used to detect peak area of corresponding compound and internal standard, peak area ratio of compound and internal standard was calculated.
(§9) [formula] t1/2(min); CLint(μL/min/mg).

[2] = Metabolic stability evaluation, liver microsome assay (RLM); format: in vitro ADME, SD rat; settings: Sprague-Dawley, pH 7.4, rat liver microsomes 0.5 mg/mL, compound 1 μM, NADPH, 37° C.; for half-life at 1 μM: read-out: RLM t1/2
Method: as §1, §2, §3, §4, §5, §6, §7, §8, §9

[3] = Metabolic stability evaluation, liver microsome assay (MLM); format: in vitro ADME; settings: mouse, mouse liver microsomes, pH 7.4, mice liver microsomes 0.5 mg/mL, compound 1 μM, NADPH, 37° C.; for half-life at 1 μM: read-out: MLM t1/2
Method: as §1, §2, §3, §4, §5, §6, §7, §8, §9

Ba/F3 parental = experiment: cells; settings: Mus musculus, BaF3, 72 h, read-out: IC50 (nM) Ba/F3 parental
Ba/F3 KIF5B-RET = experiment: Cytotoxicity assay (CellTiter-Glo), Ba/F3 KIF5B-RET; format: cell-based; settings: Mus musculus, BaF3; cell viability, 72 hours, CTG
Ba/F3 KIF5B-RET^V804M = experiment: Cytotoxicity assay (CellTiter-Glo), Ba/F3 KIF5B-RET V804M; format: cell-based; settings: Mus musculus, BaF3; cell viability, 72 hours, CTG

[2H]C([2H])([2H])Oc1ccc(CN2C3CC2CN(c2ccc(-c4cc(-c5cnn(C)c5)cn5ncc(C#N)c45)cn2)C3)cn1 [Example 1, 4-(6-(6-((6-(methoxy-d3)pyridin-3-yl)methyl)-3,6-diazabicyclo[3.1.1]heptan-3-yl)pyridin-3-yl)-6-(1-methyl-1H-pyrazol-4-yl)pyrazolo[1,5-a]pyridine-3-carbonitrile]
microsomal CLint at 1 μM [1]: 87.5 µL/min/mg
half-life at 1 μM [1]: 15.8 min
microsomal CLint at 1 μM [2]: 51.5 µL/min/mg
half-life at 1 μM [2]: 26.9 min
microsomal CLint at 1 μM [3]: 73.2 µL/min/mg
half-life at 1 μM [3]: 18.9 min

[2H]C([2H])(c1ccc(OC)nc1)N1C2CC1CN(c1ccc(-c3cc(-c4cnn(C)c4)cn4ncc(C#N)c34)cn1)C2 [Example 2, 4-(6-(6-((6-methoxypyridin-3-yl)methyl-d2)-3,6-diazabicyclo[3.1.1]heptan-3-yl)pyridin-3-yl)-6-(1-methyl-1H-pyrazol-4-yl)pyrazolo[1,5-a]pyridine-3-carbonitrile]
microsomal CLint at 1 μM [1]: 105 µL/min/mg
half-life at 1 μM [1]: 13.2 min
microsomal CLint at 1 μM [2]: 35.1 µL/min/mg
half-life at 1 μM [2]: 39.5 min
microsomal CLint at 1 μM [3]: 78.3 µL/min/mg
half-life at 1 μM [3]: 17.7 min

[2H]C([2H])([2H])Oc1ccc(C([2H])([2H])N2C3CC2CN(c2ccc(-c4cc(-c5cnn(C)c5)cn5ncc(C#N)c45)cn2)C3)cn1 [Example 3, 4-(6-(6-((6-(methoxy-d3)pyridin-3-yl)methyl-d2)-3,6-diazabicyclo[3.1.1]heptan-3-yl)pyridin-3-yl)-6-(1-methyl-1H-pyrazol-4-yl)pyrazolo[1,5-a]pyridine-3-carbonitrile]
microsomal CLint at 1 μM [1]: 85.6 µL/min/mg
half-life at 1 μM [1]: 16.2 min
microsomal CLint at 1 μM [2]: 55.3 µL/min/mg
half-life at 1 μM [2]: 25.1 min
microsomal CLint at 1 μM [3]: 68.8 µL/min/mg
half-life at 1 μM [3]: 20.2 min

[2H]C([2H])([2H])Oc1ccc(CN2C3CC2CN(c2ccc(-c4cc(-c5cnn(C([2H])([2H])[2H])c5)cn5ncc(C#N)c45)cn2)C3)cn1 [Example 4, 4-(6-(6-((6-(methoxy-d3)pyridin-3-yl)methyl)-3,6-diazabicyclo[3.1.1]heptan-3-yl)pyridin-3-yl)-6-(1-(methyl-d3)-1H-pyrazol-4-yl)pyrazolo[1,5-a]pyridine-3-carbonitrile]
microsomal CLint at 1 μM [1]: 97.9 µL/min/mg
half-life at 1 μM [1]: 14.2 min
microsomal CLint at 1 μM [2]: 49.1 µL/min/mg
half-life at 1 μM [2]: 28.2 min
microsomal CLint at 1 μM [3]: 63.5 µL/min/mg
half-life at 1 μM [3]: 21.8 min

[2H]C([2H])(c1ccc(OC)nc1)N1C2CC1CN(c1ccc(-c3cc(-c4cnn(C([2H])([2H])[2H])c4)cn4ncc(C#N)c34)cn1)C2 [Example 5, 4-(6-(6-((6-methoxypyridin-3-yl)methyl-d2)-3,6-diazabicyclo[3.1.1]heptan-3-yl)pyridin-3-yl)-6-(1-(methyl-d3)-1H-pyrazol-4-yl)pyrazolo[1,5-a]pyridine-3-carbonitrile]
microsomal CLint at 1 μM [1]: 83.2 µL/min/mg
half-life at 1 μM [1]: 16.7 min
microsomal CLint at 1 μM [2]: 37.9 µL/min/mg
half-life at 1 μM [2]: 36.6 min
microsomal CLint at 1 μM [3]: 75.8 µL/min/mg
half-life at 1 μM [3]: 18.3 min

[2H]C([2H])([2H])Oc1ccc(C([2H])([2H])N2C3CC2CN(c2ccc(-c4cc(-c5cnn(C([2H])([2H])[2H])c5)cn5ncc(C#N)c45)cn2)C3)cn1 [Example 6, 4-(6-(6-((6-(methoxy-d3)pyridin-3-yl)methyl-d2)-3,6-diazabicyclo[3.1.1]heptan-3-yl)pyridin-3-yl)-6-(1-(methyl-d3)-1H-pyrazol-4-yl)pyrazolo[1,5-a]pyridine-3-carbonitrile]
microsomal CLint at 1 μM [1]: 112 µL/min/mg
half-life at 1 μM [1]: 12.4 min
microsomal CLint at 1 μM [2]: 47.3 µL/min/mg
half-life at 1 μM [2]: 29.3 min
microsomal CLint at 1 μM [3]: 65 µL/min/mg
half-life at 1 μM [3]: 21.3 min

[2H]C([2H])([2H])n1cc(-c2cc(-c3ccc(N4CC5CC(C4)N5Cc4ccc(OC)nc4)nc3)c3c(C#N)cnn3c2)cn1 [Example 7, 4-(6-(6-((6-methoxypyridin-3-yl)methyl)-3,6-diazabicyclo[3.1.1]heptan-3-yl)pyridin-3-yl)-6-(1-(methyl-d3)-1H-pyrazol-4-yl)pyrazolo[1,5-a]pyridine-3-carbonitrile]
microsomal CLint at 1 μM [1]: 11.1 µL/min/mg
half-life at 1 μM [1]: 124 min
microsomal CLint at 1 μM [2]: 11.3 µL/min/mg
half-life at 1 μM [2]: 122 min
microsomal CLint at 1 μM [3]: 76 µL/min/mg
half-life at 1 μM [3]: 18.2 min

[2H]C([2H])(c1ccc(OC)nc1)N1C2CC1CN(c1ccc(-c3cc(OC[C@H]4CNCCO4)cn4ncc(C#N)c34)cn1)C2 [Example 8]
microsomal CLint at 1 μM [1]: 10.6 µL/min/mg
half-life at 1 μM [1]: 131 min
microsomal CLint at 1 μM [2]: 5.3 µL/min/mg
half-life at 1 μM [2]: 263 min
microsomal CLint at 1 μM [3]: 5.8 µL/min/mg
half-life at 1 μM [3]: 237 min
IC50 (Ba/F3 parental): 3360 nM

[2H]C([2H])(c1ccc(OC)nc1)N1C2CC1CN(c1ccc(-c3cc(OCC(C)(C)O)cn4ncc(C#N)c34)cn1)C2 [Example 11, 6-(2-hydroxy-2-methylpropoxy)-4-(6-(6-((6-methoxypyridin-3-yl)methyl-d2)-3,6-diazabicyclo[3.1.1]heptan-3-yl)pyridin-3-yl)pyrazolo[1,5-a]pyridine-3-carbonitrile]
microsomal CLint at 1 μM [1]: 96.2 µL/min/mg
half-life at 1 μM [1]: 14.4 min
microsomal CLint at 1 μM [2]: 11.7 µL/min/mg
half-life at 1 μM [2]: 118 min
microsomal CLint at 1 μM [3]: 44.8 µL/min/mg
half-life at 1 μM [3]: 30.9 min
IC50 (Ba/F3 KIF5B-RET): 19.1 nM
IC50 (Ba/F3 KIF5B-RET^V804M): 40.5 nM
IC50 (Ba/F3 parental): 3510 nM

[2H]C([2H])([2H])Oc1ccc(CN2C3CC2CN(c2ccc(-c4cc(OCC(C)(C)O)cn5ncc(C#N)c45)cn2)C3)cn1 [Example 12, 6-(2-hydroxy-2-methylpropoxy)-4-(6-(6-((6-(methoxy-d3)pyridin-3-yl)methyl)-3,6-diazabicyclo[3.1.1]heptan-3-yl)pyridin-3-yl)pyrazolo[1,5-a]pyridine-3-carbonitrile]
microsomal CLint at 1 μM [1]: 93.1 µL/min/mg
half-life at 1 μM [1]: 14.9 min
microsomal CLint at 1 μM [2]: 10.1 µL/min/mg
half-life at 1 μM [2]: 137 min
microsomal CLint at 1 μM [3]: 44.9 µL/min/mg
half-life at 1 μM [3]: 30.8 min
IC50 (Ba/F3 KIF5B-RET): 16 nM
IC50 (Ba/F3 KIF5B-RET^V804M): 45.2 nM
IC50 (Ba/F3 parental): 5930 nM

[2H]C([2H])([2H])Oc1ccc(C([2H])([2H])N2C3CC2CN(c2ccc(-c4cc(OCC(C)(C)O)cn5ncc(C#N)c45)cn2)C3)cn1 [Example 13, 6-(2-hydroxy-2-methylpropoxy)-4-(6-(6-((6-(methoxy-d3)pyridin-3-yl)methyl-d2)-3,6-diazabicyclo[3.1.1]heptan-3-yl)pyridin-3-yl)pyrazolo[1,5-a]pyridine-3-carbonitrile]
microsomal CLint at 1 μM [1]: 92.2 µL/min/mg
half-life at 1 μM [1]: 15 min
microsomal CLint at 1 μM [2]: 10.8 µL/min/mg
half-life at 1 μM [2]: 128 min
microsomal CLint at 1 μM [3]: 42.8 µL/min/mg
half-life at 1 μM [3]: 32.4 min
IC50 (Ba/F3 KIF5B-RET): 23.5 nM
IC50 (Ba/F3 KIF5B-RET^V804M): 90 nM
IC50 (Ba/F3 parental): > 10000 nM
